# Laboratory results reported in patent US12616704B2, “Cannabichromene formulation for pain management” (Zyus Life Sciences Inc., priority 2020, dated 2026).
# Legend:
# CB1 receptors = CB1 receptors (Homo sapiens, UniProt P21554); details: cited from earlier work
# CB2 receptors = CB2 receptors (Homo sapiens, UniProt P34972); details: read-out: affinity (Ki) for CB2 receptors; cited from earlier work
# [1] = Welfare observations in OIPN study; type: in vivo, C57BL/6J mice; details: CBC 20 mg/kg p.o., OIPN mice
# Text: Seven mice were disqualified from further study due to showing too mild cool allodynia.
# [2] = biological target: TRPA1 (Transient Receptor potential A1) channels (Homo sapiens, UniProt O75762); details: among phytocannabinoids; cited from earlier work
# [3] = Body weight in OIPN study; type: in vivo, C57BL/6J mice; details: OIPN mice; CBC 20 mg/kg p.o., Duloxetine 25 mg/kg i.p.
# Description: Body Weight—Animal body weights were measured before assigning the treatment groups and then on each day of the study. The last body weight measurement was performed upon endpoint sampling. Terminal body weights were not collected from animals found dead or euthanized moribund.
# [4] = test system: SNL-induced motor phenotype; test: Fine motor kinematic gait analysis (MotoRater) in SNL model; type: in vivo, Sprague-Dawley rats; details: for overall gait score, CBC compared to pregabalin: p: CBC 10 mg/kg vs. pregabalin 50 mg/kg; for Knee ROM Deviation [degree]: Stats: vehicle vs. treatment group; for Overall kinematic gait score, Vehicle vs. treatment: Summary / Overall kinematic gait score, Vehicle vs. treatment: Predicted (LS) mean diff.: between groups; for Overall kinematic gait score, Vehicle vs. treatment: Predicted (LS) mean diff. / Overall kinematic gait score, D7 vs. D8 5 h: Predicted (LS) mean diff. / Overall kinematic gait score, D7 vs. D8 9 h: Predicted (LS) mean diff. / Overall kinematic gait score, D7 vs. D9: Predicted (LS) mean diff. / Overall kinematic gait score, D7 vs. Baseline: Predicted (LS) mean diff.: z-score; for Ankle Angle, Max [degree]: Stats: vehicle vs. treatment, pregabalin 50 mg/kg; for Overall kinematic gait score, D7 vs. D8 5 h: Summary / Overall kinematic gait score, D7 vs. D8 9 h: Summary / Overall kinematic gait score, D7 vs. D9: Summary / Overall kinematic gait score, D7 vs. Baseline: Summary / Overall kinematic gait score, D7 vs. D8 5 h: Predicted (LS) mean diff. / Overall kinematic gait score, D7 vs. D8 9 h: Predicted (LS) mean diff. / Overall kinematic gait score, D7 vs. D9: Predicted (LS) mean diff. / Overall kinematic gait score, D7 vs. Baseline: Predicted (LS) mean diff.: within group; for Overall kinematic gait score, D7 vs. Baseline: Summary / Overall kinematic gait score, D7 vs. Baseline: Predicted (LS) mean diff.: before dosing
# Description: The treatment groups received the following test article mixtures: • Group 1: treated with vehicle (0.9% saline) • Group 2: treated with Pregabalin (50 mg/kg) • Group 3: treated with CBC (10 mg/kg)
# Administration of Treatments. CBC (cannabichromene) formulation, the vehicle, or pregabalin treatment was administered according to Table 1 on study day 8 to all study animals, and on study day 10 to 6 animals per group. The dousing route of CBC or the vehicle were intragastric (p.o.), while pregabalin was administered intraperitoneally (i.p.). In addition to D8, pregabalin was administered on D9, at 2 h prior to the evf test. All animals of the pregabalin group were euthanized on D9, following the last test trial. The CBC was dissolved and diluted to one of the following vehicles:
# Fine Motor Kinematic Gait Analysis. The subjected to gait analysis at the baseline and on study days 8, 9, 11, 14 and 17, at a minimum of 30 min after the evF test. The assay was carried out by MotoRater (TSE Systems, Homburg, Germany), with the walking mode. Prior to commencing the test, the essential body points (e.g. joints, limbs, nose, tail) were marked for tracking. The information of the gait performance was captured using a high speed camera (300 frames/second) from below and both sides. Next, the captured videos are converted to custom software. The raw data was obtained by tracking the marked points of the body from the videos recorded from all 3 dimensions. The raw data thus comprise correlation of the movements of different body points in coordinates related to the ground and each three dimensions.
# Different gait patterns and movements were analyzed using a custom made automated analysis system. Information about altogether over a hundred kinematic parameters were attained. These comprised e.g:
# All MotoRater data were analyzed for the distinct parameters, as well as for all combined parameters, using principal component analysis (PCA). The obtained results produce the model phenotype in gait analysis i.e. the difference between vehicle and cannabinoid treated animals regarding both individual parameters and PCA.
# In addition to the baseline test, the motorater test was performed altogether four times over the course of behavioral study phase: • on D7, to assess the model-specific motor defects prior to dosing, • on D8, after finishing the 4-h evF, • on D8, after finishing the 8-h evF, and • on D9, after finishing the 24-h evF.
# The kinematic assay was not performed to the animals before a minimum of 30 min after evF test.
# [5] = BL (before dosing), vehicle vs. CBC 10 mg/kg group
# [6] = Baseline (before SNL and dosing)
# [7] = D8 5 h, CBC 10 mg/kg p.o., pregabalin 50 mg/kg i.p.
# [8] = D 8 5 h, vehicle vs. CBC 10 mg/kg
# [9] = D8 9 h, CBC 10 mg/kg p.o., pregabalin 50 mg/kg i.p.
# [10] = D9, CBC 10 mg/kg p.o., pregabalin 50 mg/kg i.p.
# [11] = Table 8, BL (before dosing), vehicle vs. CBC 10 mg/kg group
# [12] = Table 8, D 8 5 h, vehicle vs. CBC 10 mg/kg
# [13] = CBC 10 mg/kg p.o., pregabalin 50 mg/kg i.p.
# [14] = BL (before dosing), vehicle vs. pregabalin group
# [15] = D 7 (pre-dosing), vehicle vs. pregabalin group
# Chain of TRPA1 (Transient Receptor potential A1) channels (O75762 whole entry): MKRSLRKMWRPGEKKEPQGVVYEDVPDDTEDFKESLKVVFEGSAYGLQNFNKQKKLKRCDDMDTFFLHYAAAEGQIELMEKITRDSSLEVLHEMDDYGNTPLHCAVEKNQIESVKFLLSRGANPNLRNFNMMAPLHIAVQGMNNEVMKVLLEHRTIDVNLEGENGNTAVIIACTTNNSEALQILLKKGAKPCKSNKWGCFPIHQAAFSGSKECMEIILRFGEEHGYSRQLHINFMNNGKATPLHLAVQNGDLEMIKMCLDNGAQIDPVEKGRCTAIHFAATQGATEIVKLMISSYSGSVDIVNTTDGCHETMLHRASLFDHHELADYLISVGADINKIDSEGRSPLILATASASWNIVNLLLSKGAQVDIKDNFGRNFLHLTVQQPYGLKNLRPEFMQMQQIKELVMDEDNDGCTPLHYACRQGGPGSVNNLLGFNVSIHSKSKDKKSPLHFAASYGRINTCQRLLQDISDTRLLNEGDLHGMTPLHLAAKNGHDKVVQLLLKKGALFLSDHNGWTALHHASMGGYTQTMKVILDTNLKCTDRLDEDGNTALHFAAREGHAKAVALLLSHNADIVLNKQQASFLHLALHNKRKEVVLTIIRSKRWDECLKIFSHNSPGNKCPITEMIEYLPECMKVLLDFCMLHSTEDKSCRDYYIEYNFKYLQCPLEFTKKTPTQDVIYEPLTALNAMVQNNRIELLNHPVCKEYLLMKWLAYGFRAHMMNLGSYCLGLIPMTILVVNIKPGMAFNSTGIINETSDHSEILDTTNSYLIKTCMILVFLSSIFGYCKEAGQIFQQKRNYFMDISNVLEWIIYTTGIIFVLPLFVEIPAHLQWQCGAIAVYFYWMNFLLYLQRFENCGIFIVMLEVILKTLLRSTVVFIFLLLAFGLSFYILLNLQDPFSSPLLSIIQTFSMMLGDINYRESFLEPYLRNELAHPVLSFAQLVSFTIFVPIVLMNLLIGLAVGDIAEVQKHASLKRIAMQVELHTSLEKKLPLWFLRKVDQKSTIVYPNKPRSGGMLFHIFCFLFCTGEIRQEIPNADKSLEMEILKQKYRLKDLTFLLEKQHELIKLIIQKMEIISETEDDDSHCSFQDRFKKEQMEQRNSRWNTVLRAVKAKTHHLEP
# Chain of CB2 receptors (P34972 whole entry): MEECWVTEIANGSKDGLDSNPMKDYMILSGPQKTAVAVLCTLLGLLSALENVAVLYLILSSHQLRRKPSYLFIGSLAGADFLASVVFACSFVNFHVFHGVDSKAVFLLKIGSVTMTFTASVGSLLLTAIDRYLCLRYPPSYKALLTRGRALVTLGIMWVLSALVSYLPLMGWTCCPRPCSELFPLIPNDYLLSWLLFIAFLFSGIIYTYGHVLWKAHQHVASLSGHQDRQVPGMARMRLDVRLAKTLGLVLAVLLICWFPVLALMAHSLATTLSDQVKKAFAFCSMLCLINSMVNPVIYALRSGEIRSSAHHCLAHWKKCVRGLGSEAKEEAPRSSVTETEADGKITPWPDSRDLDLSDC
# Chain of CB1 receptors (P21554 whole entry): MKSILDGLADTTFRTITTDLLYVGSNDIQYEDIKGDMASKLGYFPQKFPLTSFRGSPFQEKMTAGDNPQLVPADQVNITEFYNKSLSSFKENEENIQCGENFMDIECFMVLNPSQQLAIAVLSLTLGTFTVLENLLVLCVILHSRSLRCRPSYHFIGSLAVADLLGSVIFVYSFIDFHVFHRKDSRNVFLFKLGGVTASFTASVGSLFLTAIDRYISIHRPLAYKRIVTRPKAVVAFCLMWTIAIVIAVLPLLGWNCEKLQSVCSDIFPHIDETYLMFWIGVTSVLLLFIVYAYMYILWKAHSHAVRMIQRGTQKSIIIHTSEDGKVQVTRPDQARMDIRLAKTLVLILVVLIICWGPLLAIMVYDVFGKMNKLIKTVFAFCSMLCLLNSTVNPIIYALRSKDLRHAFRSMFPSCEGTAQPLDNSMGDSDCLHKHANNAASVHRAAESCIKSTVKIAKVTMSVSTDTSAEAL
smiles,measurement,setting,value
"CCCCCc1cc(O)c2c(c1)OC(C)(CCC=C(C)C)C=C2 (stereo not drawn) [CBC, cannabichromene]",binds to CB1 receptors only at concentrations higher than,CB1 receptors,higher than 1 micromolar
same,Ki,CB2 receptors,~0.1 µM
same,adverse effects,[1],no hyper-reactivity or psychoactive adverse effects
same,agonist potency at TRPA1 channels,[2],most potent agonist of all the phytocannabinoids
same,body weight development from D22 onwards,[3],slower increase in body weight
same,"overall gait score, CBC compared to pregabalin: p",[4]; 5 h PD,0.07693
same,"overall gait score, CBC compared to pregabalin: p",[4]; 9 h PD,0.04717
same,Ankle ROM Deviation [degree]: Stats,[4]; [5],2.98
same,Homolateral Interlimb coordination: Stats,[4]; [5],2.84
same,"Swing Speed Metric, Hind: Stats",[4]; [5],−3.67
same,Knee ROM Deviation [degree]: Stats,[4]; BL (before dosing),2.88
same,"Overall kinematic gait score, Vehicle vs. treatment: Summary",[4]; [6],ns
same,"Overall kinematic gait score, Vehicle vs. treatment: Predicted (LS) mean diff.",[4]; [6],−1
same,overall Gait score compared to Vehicle,[4]; CBC 10 mg/kg,did not show a significant reduction in overall Gait score compared to Vehicle
same,"overall gait score, within group comparisons over time",[4]; CBC 10 mg/kg,did not identify a significant time-bound overall gait score difference
same,"Overall kinematic gait score, Vehicle vs. treatment: Summary",[4]; D7 (pre-dosing),ns
same,"Overall kinematic gait score, Vehicle vs. treatment: Predicted (LS) mean diff.",[4]; D7 (pre-dosing),0.1511
same,"Overall kinematic gait score, Vehicle vs. treatment: Summary",[4]; [7],ns
same,"Hip Angle, Max [degree]: Stats",[4]; [8],4.29
same,"Knee Angle, Min [degree]: Stats",[4]; [8],3.78
same,Mean Hip Jerk [m/s3]: Adjusted p-value,[4]; [8],0.01
same,Mean Hip Jerk [m/s3]: Adjusted p-value Sig?,[4]; [8],** (** p≤0.01)
same,Mean Hip Jerk [m/s3]: Stats,[4]; [8],−3.04
same,Mean Hip Jerk [m/s3]: p-value,[4]; [8],0.01
same,"Protraction, Hind [m]: Stats",[4]; [8],−4.42
same,"Retraction, Hind [m]: Stats",[4]; [8],4.26
same,"Step Width, Fore [mm]: Stats",[4]; [8],−2.86
same,"Ankle Angle, Max [degree]: Stats","[4]; D 8 5 h, CBC 10 mg/kg",−2.85
same,"Overall kinematic gait score, Vehicle vs. treatment: Predicted (LS) mean diff.",[4]; [7],1.116
same,"Overall kinematic gait score, Vehicle vs. treatment: Summary",[4]; [9],ns
same,"Overall kinematic gait score, Vehicle vs. treatment: Predicted (LS) mean diff.",[4]; [9],0.654
same,"Overall kinematic gait score, Vehicle vs. treatment: Summary",[4]; [10],ns
same,"Overall kinematic gait score, Vehicle vs. treatment: Predicted (LS) mean diff.",[4]; [10],−0.4602
same,"Homolateral Interlimb coordination, CBC vs. Vehicle: p","[4]; D9 post-dosing, CBC 10 mg/kg",0.03
same,Ankle ROM: Significance,[4]; [11],"* (p<0.05, significant)"
same,Ankle ROM: Statistic,[4]; [11],2.98
same,Homolateral: Significance,[4]; [11],"* (p<0.05, significant)"
same,Homolateral: Statistic,[4]; [11],2.84
same,Knee ROM: Significance,[4]; [11],"* (p<0.05, significant)"
same,Knee ROM: Statistic,[4]; [11],2.88
same,Swing Speed: Significance,[4]; [11],"** (p<0.01, very significant)"
same,Swing Speed: Statistic,[4]; [11],−3.67
same,Ankle Angle. Max: Significance,[4]; [12],"* (p<0.05, significant)"
same,Ankle Angle. Max: Statistic,[4]; [12],−2.85
same,Hip Angle. Max: Significance,[4]; [12],"*** (p<0.001, extremely/highly significant)"
same,Hip Angle. Max: Statistic,[4]; [12],4.29
same,Knee Angle. Min: Significance,[4]; [12],"** (p<0.01, very significant)"
same,Knee Angle. Min: Statistic,[4]; [12],3.78
same,Mean Hip Jerk: Significance,[4]; [12],"* (p<0.05, significant)"
same,Mean Hip Jerk: Statistic,[4]; [12],−3.04
same,Mean Hip Jerk: p-value,[4]; [12],0.00953
same,Protraction. Hind: Significance,[4]; [12],"*** (p<0.001, extremely/highly significant)"
same,Protraction. Hind: Statistic,[4]; [12],−4.42
same,Retraction. Hind: Significance,[4]; [12],"*** (p<0.001, extremely/highly significant)"
same,Retraction. Hind: Statistic,[4]; [12],4.26
same,Step Width. Fore: Significance,[4]; [12],"* (p<0.05, significant)"
same,Step Width. Fore: Statistic,[4]; [12],−2.86
same,Support Metric gait variables compared to Vehicle,"[4]; baseline to D9, CBC 10 mg/kg",No statistical significance was observed
same,"Overall kinematic gait score, D7 vs. D8 5 h: Summary",[4]; [13],ns
same,"Overall kinematic gait score, D7 vs. D8 9 h: Summary",[4]; [13],ns
same,"Overall kinematic gait score, D7 vs. D9: Summary",[4]; [13],ns
same,"Overall kinematic gait score, D7 vs. Baseline: Summary",[4],"** (p<0.01, very significant)"
same,"Overall kinematic gait score, D7 vs. D8 5 h: Predicted (LS) mean diff.",[4]; [13],−0.5337
same,"Overall kinematic gait score, D7 vs. D8 9 h: Predicted (LS) mean diff.",[4]; [13],−1.516
same,"Overall kinematic gait score, D7 vs. D9: Predicted (LS) mean diff.",[4]; [13],−1.619
same,"Overall kinematic gait score, D7 vs. Baseline: Predicted (LS) mean diff.",[4],2.236
"CC(C)C[C@H](CN)CC(=O)O [Pregabalin, pregabalin, reference compound]",Duty Cycle [%]: Stats,[4]; [14],2.77
same,"Duty Cycle, Fore [%]: Stats",[4]; [14],3.26
same,Mean Hip Jerk [m/s3]: Adjusted p-value,[4]; [14],0.001
same,Mean Hip Jerk [m/s3]: Adjusted p-value Sig?,[4]; [14],*** (*** p≤0.001)
same,Mean Hip Jerk [m/s3]: Stats,[4]; [14],−3.75
same,Mean Hip Jerk [m/s3]: p-value,[4]; [14],0.001
same,Knee ROM Deviation [degree]: Stats,[4]; BL (before dosing),3.23
same,"Overall kinematic gait score, Vehicle vs. treatment: Summary",[4]; [6],"* (p<0.05, significant)"
same,"Overall kinematic gait score, Vehicle vs. treatment: Predicted (LS) mean diff.",[4]; [6],−2.013
same,"Overall kinematic gait score, Vehicle vs. treatment: Summary",[4]; D7 (pre-dosing),ns
same,"Paw Trajectory Shape 25%, Hind [%]: Stats",[4]; [15],−3.01
same,"Relative Trajectory Length, Fore: Stats",[4]; [15],−3.26
same,"Overall kinematic gait score, Vehicle vs. treatment: Predicted (LS) mean diff.",[4]; D7 (pre-dosing),−0.5896
same,"Overall kinematic gait score, Vehicle vs. treatment: Summary",[4]; [7],ns
same,"Ankle Angle, Min [degree]: Stats","[4]; D 8 5 h, vehicle vs. pregabalin 50 mg/kg",−2.99
same,"Ankle Angle, Max [degree]: Stats","[4]; D 8 5 h, CBC 10 mg/kg",−3.74
same,"Overall kinematic gait score, Vehicle vs. treatment: Predicted (LS) mean diff.",[4]; [7],−0.2262
same,"Overall kinematic gait score, Vehicle vs. treatment: Summary",[4]; [9],ns
same,Hip ROM [degree]: Stats,"[4]; D 8 9 h, vehicle vs. pregabalin 50 mg/kg",2.85
same,"Overall kinematic gait score, Vehicle vs. treatment: Predicted (LS) mean diff.",[4]; [9],−0.8408
same,"Overall kinematic gait score, Vehicle vs. treatment: Summary",[4]; [10],ns
same,"Overall kinematic gait score, Vehicle vs. treatment: Predicted (LS) mean diff.",[4]; [10],−0.8531
same,"Overall kinematic gait score, D7 vs. D8 5 h: Summary",[4]; [13],ns
same,"Overall kinematic gait score, D7 vs. D8 9 h: Summary",[4]; [13],"** (p<0.01, very significant)"
same,"Overall kinematic gait score, D7 vs. D9: Summary",[4]; [13],ns
same,"Overall kinematic gait score, D7 vs. Baseline: Summary",[4],"** (p<0.01, very significant)"
same,"Overall kinematic gait score, D7 vs. D8 5 h: Predicted (LS) mean diff.",[4]; [13],−1.135
same,"Overall kinematic gait score, D7 vs. D8 9 h: Predicted (LS) mean diff.",[4]; [13],−2.27
same,"Overall kinematic gait score, D7 vs. D9: Predicted (LS) mean diff.",[4]; [13],−1.271
same,"Overall kinematic gait score, D7 vs. Baseline: Predicted (LS) mean diff.",[4],1.964
